Patent publication US11427574B2, “Compounds for treating Rac-GTPase mediated disorder” (Children's Medical Center Corporation, priority 2015, dated 2022)

What was measured:
[1] = target: ABL1 (Homo sapiens, UniProt P00519); test: Kinase screening; assay type: biochemical
Method: (§1) Compound 1 was tested for its efficacy in inhibiting activities of 40 kinases and binding with 12 GPCRs both as an antagonist and an agonist.

[2] = target: AKT1 (PKB alpha) (Homo sapiens, UniProt P31749); test: Kinase screening; assay type: biochemical
Method: as §1

[3] = target: AKT2 (PKB beta) (Homo sapiens, UniProt P31751); test: Kinase screening; assay type: biochemical
Method: as §1

[4] = target: CDC42 BPA (MRCKA) (Homo sapiens, UniProt Q5VT25); test: Kinase screening; assay type: biochemical
Method: as §1

[5] = target: CDC42 BPB (MRCKB) (Homo sapiens, UniProt Q9Y5S2); test: Kinase screening; assay type: biochemical
Method: as §1

[6] = target: CDK1/cyclin B (Homo sapiens, UniProt P06493); test: Kinase screening; assay type: biochemical
Method: as §1

[7] = target: CDK5/p25 (Homo sapiens, UniProt Q00535); test: Kinase screening; assay type: biochemical
Method: as §1

[8] = target: EGFR (ErbB1) (Homo sapiens, UniProt P00533); test: Kinase screening; assay type: biochemical
Method: as §1

[9] = target: EPHB1 (Homo sapiens, UniProt P54762); test: Kinase screening; assay type: biochemical
Method: as §1

[10] = target: FLT3 (Homo sapiens, UniProt P36888); test: Kinase screening; assay type: biochemical
Method: as §1

[11] = target: FRAP1 (mTOR) (Homo sapiens, UniProt P42345); test: Kinase screening; assay type: biochemical
Method: as §1

[12] = target: IGF1R (Homo sapiens, UniProt P08069); test: Kinase screening; assay type: biochemical
Method: as §1

[13] = target: JAK1 (Homo sapiens, UniProt P23458); test: Kinase screening; assay type: biochemical
Method: as §1

[14] = target: JAK2 (Homo sapiens, UniProt O60674); test: Kinase screening; assay type: biochemical
Method: as §1

[15] = target: JAK3 (Homo sapiens, UniProt P52333); test: Kinase screening; assay type: biochemical
Method: as §1

[16] = target: KIT (Homo sapiens, UniProt P10721); test: Kinase screening; assay type: biochemical
Method: as §1

[17] = target: LIMK1 (Homo sapiens, UniProt P53667); test: Kinase screening; assay type: biochemical
Method: as §1

[18] = target: LIMK2 (Homo sapiens, UniProt P53671); test: Kinase screening; assay type: biochemical
Method: as §1

[19] = target: MAP2K2 (MEK2) (Homo sapiens, UniProt P36507); test: Kinase screening; assay type: biochemical
Method: as §1

[20] = target: MAP3K2 (MEKK2) (Homo sapiens, UniProt Q9Y2U5); test: Kinase screening; assay type: biochemical
Method: as §1

[21] = target: MAPK3 (ERK1) (Homo sapiens, UniProt P27361); test: Kinase screening; assay type: biochemical
Method: as §1

[22] = target: MAPK8 (JNK1) (Homo sapiens, UniProt P45983); test: Kinase screening; assay type: biochemical
Method: as §1

[23] = target: MAPK9 (JNK2) (Homo sapiens, UniProt P45984); test: Kinase screening; assay type: biochemical
Method: as §1

[24] = target: MYLK (MLCK) (Homo sapiens, UniProt Q15746); test: Kinase screening; assay type: biochemical
Method: as §1

[25] = target: PAK1 (Homo sapiens, UniProt Q13153); test: Kinase screening; assay type: biochemical
Method: as §1

[26] = target: PAK2 (PAK65) (Homo sapiens, UniProt Q13177); test: Kinase screening; assay type: biochemical
Method: as §1

[27] = target: PAK3 (Homo sapiens, UniProt O75914); test: Kinase screening; assay type: biochemical
Method: as §1

[28] = target: PAK4 (Homo sapiens, UniProt O96013); test: Kinase screening; assay type: biochemical
Method: as §1

[29] = target: PAK6 (Homo sapiens, UniProt Q9NQU5); test: Kinase screening; assay type: biochemical
Method: as §1

[30] = target: PAK7 (KIAA1264) (Homo sapiens, UniProt Q9P286); test: Kinase screening; assay type: biochemical
Method: as §1

[31] = target: PDGFRA (PDGFR alpha) (Homo sapiens, UniProt P16234); test: Kinase screening; assay type: biochemical
Method: as §1

[32] = target: PIK3C2A (PI3K-C2 alpha) (Homo sapiens, UniProt O00443); test: Kinase screening; assay type: biochemical
Method: as §1

[33] = target: PIK3C2B (PI3K-C2 beta) (Homo sapiens, UniProt O00750); test: Kinase screening; assay type: biochemical
Method: as §1

[34] = target: PIK3C3 (hVPS34) (Homo sapiens, UniProt Q8NEB9); test: Kinase screening; assay type: biochemical
Method: as §1

[35] = target: PIK3CA/PIK3R1 (p110 alpha/p85 alpha) (Homo sapiens, UniProt P42336); test: Kinase screening; assay type: biochemical
Method: as §1

[36] = target: PIK3CD/PIK3R1 (p110 delta/p85 alpha) (Homo sapiens, UniProt O00329); test: Kinase screening; assay type: biochemical
Method: as §1

[37] = target: ROCK1 (Homo sapiens, UniProt Q13464); test: Kinase screening; assay type: biochemical
Method: as §1

[38] = target: ROCK2 (Homo sapiens, UniProt O75116); test: Kinase screening; assay type: biochemical
Method: as §1

[39] = target: SRC (Homo sapiens, UniProt P12931); test: Kinase screening; assay type: biochemical
Method: as §1

[40] = target: SYK (Homo sapiens, UniProt P43405); test: Kinase screening; assay type: biochemical
Method: as §1

[41] = tested on: SEM cells; test: Proliferation assay in SEM leukemia cells; assay type: cell-based; details: compared to Compound 1 (FIG. 12a)
Method: Dose Dependent Inhibition of Proliferation The 100 compounds selected from the initial in silico screen were assayed for inhibition of proliferation in two leukemia cell lines, SEM and P12 by Cell Titer Glo. The cells for the proliferation assay were spun down and re-suspended. The cell suspension was then divided and the compound to be tested added in desired concentrations and subsequently plated. Following an incubation period, the Cell Titer Glo reagent (Promega CellTiter 96® Aqueous Non-Radioactive Cell Proliferation Assay) was added and allowed to incubate. The absorbance is subsequently measured at 490 nm using a plate reader. Each compound was analyzed for its effects on cell proliferation.
The lead compound, i.e. Compound 1, was analyzed for its effect on cell proliferation at various doses on three different leukemia cell lines: SEM, P12, and Loucy. In order to quantitate the percentage inhibition of cell proliferation, Cell Titer Glo analysis was completed as described in Example 2 above.
FIGS. 3a-3c show three graphs illustrating the dose dependent inhibition of proliferation of Compound 1 in SEM, P12, and Loucy cells as measured by MTS assay. […] Compound 1 was further analyzed for its effect on cell apoptosis and cell death using a flow based assay using Annexin V staining. […]

[42] = tested on: SEM cell line; test: Annexin V flow assay for apoptosis and cell death, SEM; assay type: cell-based; details: Annexin V staining
Text: FIGS. 3a-3c show three graphs illustrating the dose dependent inhibition of proliferation of Compound 1 in SEM, P12, and Loucy cells as measured by MTS assay. […] Compound 1 was further analyzed for its effect on cell apoptosis and cell death using a flow based assay using Annexin V staining.
Compound 2 was further analyzed for its effect on cell apoptosis and cell death using a flow based assay using Annexin V staining.

[43] = target: Rac1 (Homo sapiens, UniProt P63000); test: 2D NMR spectroscopy binding assay; details: 50 μM Rac1 and 250 μM Compound 2
Method: (§2) Compound 1 was tested for its efficacy in binding with Rac1 in two independent binding assays, i.e., 2D NMR spectroscopy and Homologous time resolved fluorescence assay (HTRF).
(§3) In the 2D NMR assay, samples containing 50 μM Rac1 and 250 μM or 400 μM Compound 1 were used.
(§4) Compound 2 was tested for its efficacy in binding with Rac1 in two independent binding assays, i.e., 2D NMR spectroscopy and Homologous time resolved fluorescence assay (HTRF).
(§5) In the 2D NMR assay, a sample containing 50 μM Rac1 and 250 μM Compound 2 was used.

[44] = target: Tiam1-Rac complex (Homo sapiens, UniProt P63000); test: Homologous time resolved fluorescence (HTRF) binding assay
Method: as §2, §3, §4, §5

[45] = tested on: cancer cell; test: Cellular proliferation assay of SAR analogs; assay type: cell-based; details: among 48 tested SAR analogs
Method: SAR was performed to identify analogs of Compound that have improved properties. 56 Compounds identified in this SAR study were synthesized. Among them, 48 compounds were tested a cellular proliferation assay.

[46] = tested on: P12-ICHIKAWA cells; test: In vivo P12-ICHIKAWA leukemia model in NSG mice; details: 50 mg/Kg body weight oral twice daily; supine position, vs vehicle
Method: Specifically, cell line P12-ICHIKAWA was marked with a lentiviral vector coexpressing Luciferase and an mCherry fluorescent tag. Sorted mCherry positive P12-ICHIKAWA cells were injected into immunodeficient (NSG) mice. About 3 weeks after injection, based on an estimation of the tumor burden by quantitative assessment of bioluminescence imaging (BLI) in vivo, mice began treatment. Mice received twice daily oral doses of Compound 2 (50 mg/Kg body weight) or placebo. Each of the Compound 2 group and the vehicle group had eight mice. BLI analysis was performed three times a week to assess tumor burden. Toxicity was assessed by evaluating body weight in treated mice vs vehicle group (see FIG. 13a). The experiment was halted at day 18 after beginning of treatment due to the very aggressive nature of the disease in the vehicle group. Mice were imaged in the supine and prone position. FIG. 13b summarizes BLI values normalized to treatment start in both the compound 2 group and the vehicle group in the supine position.

Chain of LIMK1 (P53667 whole entry, species assumed): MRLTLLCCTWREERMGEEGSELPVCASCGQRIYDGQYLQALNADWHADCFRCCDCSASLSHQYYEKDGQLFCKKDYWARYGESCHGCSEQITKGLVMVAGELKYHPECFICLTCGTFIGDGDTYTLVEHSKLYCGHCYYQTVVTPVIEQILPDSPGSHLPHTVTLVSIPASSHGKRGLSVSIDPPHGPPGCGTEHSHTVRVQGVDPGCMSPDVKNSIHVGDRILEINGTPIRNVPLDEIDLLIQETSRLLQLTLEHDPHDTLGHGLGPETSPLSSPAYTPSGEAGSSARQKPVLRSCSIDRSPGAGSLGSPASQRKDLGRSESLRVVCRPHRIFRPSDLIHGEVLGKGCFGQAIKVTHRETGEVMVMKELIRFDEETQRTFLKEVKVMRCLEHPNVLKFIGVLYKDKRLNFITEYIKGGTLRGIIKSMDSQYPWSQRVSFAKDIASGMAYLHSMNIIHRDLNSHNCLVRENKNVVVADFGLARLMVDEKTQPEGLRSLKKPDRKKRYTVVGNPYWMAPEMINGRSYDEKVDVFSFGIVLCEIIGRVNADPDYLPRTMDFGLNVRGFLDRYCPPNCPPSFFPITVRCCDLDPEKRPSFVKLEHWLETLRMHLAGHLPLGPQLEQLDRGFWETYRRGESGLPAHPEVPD
Chain of MAPK3 (ERK1) (P27361 whole entry, species assumed): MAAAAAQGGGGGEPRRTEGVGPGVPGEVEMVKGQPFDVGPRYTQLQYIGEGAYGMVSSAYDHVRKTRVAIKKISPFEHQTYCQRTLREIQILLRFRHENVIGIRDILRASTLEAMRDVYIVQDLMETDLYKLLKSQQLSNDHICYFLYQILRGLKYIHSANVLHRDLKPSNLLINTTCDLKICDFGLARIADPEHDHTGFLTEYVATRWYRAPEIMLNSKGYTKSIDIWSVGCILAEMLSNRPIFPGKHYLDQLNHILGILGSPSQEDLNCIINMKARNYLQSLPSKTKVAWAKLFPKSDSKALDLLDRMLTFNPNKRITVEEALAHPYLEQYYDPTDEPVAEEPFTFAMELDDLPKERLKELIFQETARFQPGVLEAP
Chain of PAK7 (KIAA1264) (Q9P286 whole entry, species assumed): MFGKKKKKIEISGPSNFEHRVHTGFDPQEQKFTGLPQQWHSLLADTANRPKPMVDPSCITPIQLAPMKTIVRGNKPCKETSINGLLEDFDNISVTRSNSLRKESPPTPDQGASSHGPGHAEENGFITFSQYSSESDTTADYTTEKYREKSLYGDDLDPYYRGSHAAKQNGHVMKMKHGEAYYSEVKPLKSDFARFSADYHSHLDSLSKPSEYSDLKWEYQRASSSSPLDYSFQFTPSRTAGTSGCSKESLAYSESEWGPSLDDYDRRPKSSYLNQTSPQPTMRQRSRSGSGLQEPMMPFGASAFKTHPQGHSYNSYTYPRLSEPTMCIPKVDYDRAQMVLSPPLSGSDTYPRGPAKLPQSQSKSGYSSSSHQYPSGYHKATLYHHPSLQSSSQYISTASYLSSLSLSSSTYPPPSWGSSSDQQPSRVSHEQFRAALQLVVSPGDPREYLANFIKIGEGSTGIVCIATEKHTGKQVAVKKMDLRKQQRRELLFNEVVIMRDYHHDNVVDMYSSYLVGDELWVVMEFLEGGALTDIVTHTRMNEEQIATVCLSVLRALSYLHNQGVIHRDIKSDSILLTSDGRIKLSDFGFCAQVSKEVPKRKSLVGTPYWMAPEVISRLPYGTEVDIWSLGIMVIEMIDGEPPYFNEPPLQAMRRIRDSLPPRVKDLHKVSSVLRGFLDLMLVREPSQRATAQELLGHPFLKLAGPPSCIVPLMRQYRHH
Chain of CDC42 BPB (MRCKB) (Q9Y5S2 whole entry, species assumed): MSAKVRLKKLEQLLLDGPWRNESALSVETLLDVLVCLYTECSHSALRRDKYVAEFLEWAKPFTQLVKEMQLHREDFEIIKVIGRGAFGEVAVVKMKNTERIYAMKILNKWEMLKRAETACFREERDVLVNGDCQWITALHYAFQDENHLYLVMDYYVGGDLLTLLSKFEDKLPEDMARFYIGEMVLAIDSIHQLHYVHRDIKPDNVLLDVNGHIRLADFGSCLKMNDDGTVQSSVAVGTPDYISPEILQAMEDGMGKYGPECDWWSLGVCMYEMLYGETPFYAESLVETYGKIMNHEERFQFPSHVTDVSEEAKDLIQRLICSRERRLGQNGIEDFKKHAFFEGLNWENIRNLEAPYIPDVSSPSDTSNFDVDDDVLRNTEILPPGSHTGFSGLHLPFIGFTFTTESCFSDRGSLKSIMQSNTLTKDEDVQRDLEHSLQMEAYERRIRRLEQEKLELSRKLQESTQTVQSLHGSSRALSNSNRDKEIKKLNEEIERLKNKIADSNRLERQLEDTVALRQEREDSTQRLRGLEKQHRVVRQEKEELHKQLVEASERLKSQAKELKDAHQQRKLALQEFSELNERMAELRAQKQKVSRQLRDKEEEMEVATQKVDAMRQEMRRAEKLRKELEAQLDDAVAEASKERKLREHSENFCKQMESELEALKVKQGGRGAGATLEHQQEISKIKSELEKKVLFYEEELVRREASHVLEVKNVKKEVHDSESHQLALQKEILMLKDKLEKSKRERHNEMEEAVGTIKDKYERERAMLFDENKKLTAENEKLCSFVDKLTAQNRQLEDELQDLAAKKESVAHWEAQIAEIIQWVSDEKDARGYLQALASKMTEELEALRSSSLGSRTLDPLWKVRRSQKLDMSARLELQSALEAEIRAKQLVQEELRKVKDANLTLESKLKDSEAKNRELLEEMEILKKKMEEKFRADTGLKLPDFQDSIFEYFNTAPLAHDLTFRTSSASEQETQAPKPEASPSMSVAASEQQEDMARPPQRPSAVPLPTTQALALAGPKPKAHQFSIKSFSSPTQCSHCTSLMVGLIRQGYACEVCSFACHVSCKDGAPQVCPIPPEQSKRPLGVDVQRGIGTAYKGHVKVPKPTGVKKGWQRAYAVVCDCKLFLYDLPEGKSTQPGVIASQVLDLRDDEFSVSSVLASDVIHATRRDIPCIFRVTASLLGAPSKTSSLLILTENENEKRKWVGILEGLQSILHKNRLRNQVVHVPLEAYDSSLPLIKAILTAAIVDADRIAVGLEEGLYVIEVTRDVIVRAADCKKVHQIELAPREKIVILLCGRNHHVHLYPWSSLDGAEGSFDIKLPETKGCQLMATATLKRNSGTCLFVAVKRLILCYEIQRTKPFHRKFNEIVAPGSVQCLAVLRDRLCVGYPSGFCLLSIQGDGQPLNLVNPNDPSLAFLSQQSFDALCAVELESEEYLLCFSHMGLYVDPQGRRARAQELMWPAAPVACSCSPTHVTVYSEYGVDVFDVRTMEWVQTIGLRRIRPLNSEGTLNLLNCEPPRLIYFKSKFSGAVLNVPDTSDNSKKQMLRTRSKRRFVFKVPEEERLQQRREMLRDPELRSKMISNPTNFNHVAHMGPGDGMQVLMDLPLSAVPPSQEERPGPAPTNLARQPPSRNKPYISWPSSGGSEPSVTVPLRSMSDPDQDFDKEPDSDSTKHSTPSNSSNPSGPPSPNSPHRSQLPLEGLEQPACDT
Chain of MAPK8 (JNK1) (P45983 whole entry, species assumed): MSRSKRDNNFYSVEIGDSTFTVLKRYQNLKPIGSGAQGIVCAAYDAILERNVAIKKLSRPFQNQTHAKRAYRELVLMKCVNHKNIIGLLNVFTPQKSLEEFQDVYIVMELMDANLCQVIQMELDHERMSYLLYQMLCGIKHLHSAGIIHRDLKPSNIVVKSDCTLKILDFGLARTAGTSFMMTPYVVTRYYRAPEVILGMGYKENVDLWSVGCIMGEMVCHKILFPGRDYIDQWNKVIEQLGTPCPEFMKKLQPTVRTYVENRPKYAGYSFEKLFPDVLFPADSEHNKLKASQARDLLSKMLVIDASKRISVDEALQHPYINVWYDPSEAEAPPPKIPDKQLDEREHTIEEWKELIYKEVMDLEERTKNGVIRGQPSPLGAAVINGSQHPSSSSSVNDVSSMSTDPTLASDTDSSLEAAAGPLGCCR
Chain of PDGFRA (PDGFR alpha) (P16234 24-1089, species assumed): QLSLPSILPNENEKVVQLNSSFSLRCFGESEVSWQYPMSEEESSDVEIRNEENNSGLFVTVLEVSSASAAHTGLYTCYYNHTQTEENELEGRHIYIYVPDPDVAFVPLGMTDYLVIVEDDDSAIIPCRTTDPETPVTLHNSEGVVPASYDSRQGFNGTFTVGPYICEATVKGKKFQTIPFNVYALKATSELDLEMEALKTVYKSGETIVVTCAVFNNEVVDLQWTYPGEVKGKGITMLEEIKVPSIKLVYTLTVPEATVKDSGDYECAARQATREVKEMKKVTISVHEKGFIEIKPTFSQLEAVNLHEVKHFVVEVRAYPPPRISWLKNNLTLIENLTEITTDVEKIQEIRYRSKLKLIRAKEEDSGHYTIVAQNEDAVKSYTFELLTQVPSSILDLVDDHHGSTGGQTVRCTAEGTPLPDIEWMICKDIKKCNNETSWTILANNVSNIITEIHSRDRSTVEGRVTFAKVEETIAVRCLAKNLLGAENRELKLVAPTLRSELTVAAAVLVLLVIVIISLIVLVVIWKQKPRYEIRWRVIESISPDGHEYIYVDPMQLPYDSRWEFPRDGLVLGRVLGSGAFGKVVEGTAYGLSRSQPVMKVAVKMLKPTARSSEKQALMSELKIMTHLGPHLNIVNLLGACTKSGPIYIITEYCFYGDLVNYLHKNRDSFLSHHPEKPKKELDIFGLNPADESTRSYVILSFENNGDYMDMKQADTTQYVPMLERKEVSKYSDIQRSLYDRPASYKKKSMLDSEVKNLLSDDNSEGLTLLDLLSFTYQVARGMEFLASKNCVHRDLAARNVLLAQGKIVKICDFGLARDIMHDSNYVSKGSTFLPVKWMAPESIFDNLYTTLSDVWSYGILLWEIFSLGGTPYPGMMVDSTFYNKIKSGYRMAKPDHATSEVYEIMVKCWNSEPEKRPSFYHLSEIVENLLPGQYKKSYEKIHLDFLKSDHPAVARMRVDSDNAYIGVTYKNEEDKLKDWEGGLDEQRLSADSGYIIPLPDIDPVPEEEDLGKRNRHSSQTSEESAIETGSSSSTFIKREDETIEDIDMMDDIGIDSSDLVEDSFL

Which results are given for `CCN(CC)CCCC(C)Nc1nc(C)cc(Nc2ccc3nc(C)cc(N)c3c2)n1.Cl.Cl.Cl` (racemic) [NSC23766, N6-[2-[[4-(diethylamino)-1-methylbutyl]amino]-6-methyl-4-pyrimidinyl]-2-methyl-4,6-quinolinediamine trihydrochloride, reference compound]?
inhibition percentage [1]: 19.3 percentage; inhibition percentage [2]: −23.3 percentage; inhibition percentage [3]: −22.9 percentage; inhibition percentage [4]: −1.8 percentage; inhibition percentage [5]: −4.6 percentage; inhibition percentage [6]: 1.3 percentage; inhibition percentage [7]: 11.4 percentage; inhibition percentage [8]: 24.6 percentage; inhibition percentage [9]: 19.8 percentage; inhibition percentage [10]: 31.4 percentage; inhibition percentage [11]: 27.0 percentage; inhibition percentage [12]: 42.9 percentage; inhibition percentage [13]: 50.6 percentage; inhibition percentage [14]: 37.7 percentage; inhibition percentage [15]: 21.9 percentage; inhibition percentage [16]: 26.3 percentage; inhibition percentage [17]: −14.2 percentage; inhibition percentage [18]: −3.5 percentage; inhibition percentage [19]: 20.7 percentage; inhibition percentage [20]: 14.3 percentage; inhibition percentage [21]: 11.5 percentage; inhibition percentage [22]: −1.1 percentage; inhibition percentage [23]: −8.9 percentage; inhibition percentage [24]: 1.6 percentage; inhibition percentage [25]: 24.4 percentage; inhibition percentage [26]: 0.3 percentage; inhibition percentage [27]: 6.3 percentage; inhibition percentage [28]: −0.2 percentage; inhibition percentage [29]: 8.9 percentage; inhibition percentage [30]: 4.9 percentage; inhibition percentage [31]: 34.8 percentage; inhibition percentage [32]: −3.3 percentage; inhibition percentage [33]: −1.8 percentage; inhibition percentage [34]: −17.8 percentage; inhibition percentage [35]: −0.4 percentage; inhibition percentage [36]: −5.8 percentage; inhibition percentage [37]: −2.0 percentage; inhibition percentage [38]: −14.7 percentage; inhibition percentage [39]: 43.6 percentage; inhibition percentage [40]: 39.4 percentage

For `CCc1ccc(CN(C)C(=O)CCc2nnc(CCc3c[nH]c4ccccc34)o2)cc1` [Compound 2], which “efficacy in inhibiting proliferation of SEM cells” value [41] is on record?
Its value is “improved efficacy”.

What about the “cell apoptosis and cell death” value [42] of the same compound?
Its value is “caused cells apoptosis and cell death”.

And the “binding to Rac1 by 2D NMR” value [43]?
Its value is “did not indicate any significant binding”.

And the “binding in the HTRF assay” value [44]?
Its value is “no binding”.

And the “inhibition of cancer cell proliferation” value [45]?
The value was “strongest inhibition”.

And the “bioluminescence in the mice” value [46]?
Its value is “significantly reduced”.
